From patent US10407467B2, “Polymyxin derivatives and their use in combination therapy together with different antibiotics” (priority 2013, dated 2019)
Where a name gives a salt, the structure may show the parent alone. Read-outs that look alike come from different tables or passages of the source. Numbered stars: 1 amine (or outer) side, 2 acyl side, 3 side chain; on linkers, the order of the positions; unused ones are H or OH. Bridge positions count the residues as written; N and C are the ends. Square brackets hold non-standard residues; d marks the D form. Peptide text beside a SMILES is read from it. * marks the point of attachment. ξ: configuration not given here. ξHexahydromandeloyl = O=C(C(O)C1CCCCC1)*; Thr(3ξ) = CC(O)[C@H](N)C(=O)O; NH(2-ClPh) = Clc1ccccc1N*; Dab = NCC[C@H](N)C(=O)O; CO = O=C([*:1])[*:2]; Ahp = NCCCCCCC(=O)O

Assays:
[1] = system: HK-2 cell line; assay: In vitro renal cell toxicity assay (resazurin reduction); type: cell-based, human
[2] = system: Escherichia coli; assay: MIC, compound in combination with a second agent (broth microdilution); type: cell-based; settings: 1:1 (wt:wt) combination with Rifampicin, MIC = total drug concentration; for MIC E. coli ATCC25922: strain ATCC25922; for MIC E. coli NCTC9001: strain NCTC9001
Method in brief: (§1)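 Compound and second agent (e.g. rifampicin) were combined 1:1 w/w, compound weighed as its TFA or sulphate salt. Inoculum was a direct colony suspension from 18-24 hour Mueller-Hinton agar at 0.5 McFarland. MIC is the total drug concentration; lower of duplicates reported, modal value when tested repeatedly.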

[3] = system: Acinetobacter baumannii; assay: as above; type: cell-based; settings: 1:1 (wt:wt) combination with Rifampicin, MIC = total drug concentration; for MIC A. baumannii ATCC BAA-747: strain ATCC BAA-747; for MIC A. baumannii CCUG57249: strain CCUG57249; for MIC A. baumannii NCTC 13423: strain NCTC 13423; for MIC A. baumannii NCTC 13424: strain NCTC 13424
Method in brief: as §1

[4] = system: Pseudomonas aeruginosa; assay: as above; type: cell-based; settings: 1:1 (wt:wt) combination with Rifampicin, MIC = total drug concentration; for MIC P. aeruginosa ATCC 27853: strain ATCC 27853; for MIC P. aeruginosa ATCC CRM-9027: strain ATCC CRM-9027; for MIC P. aeruginosa ATCC-47: strain ATCC-47; for MIC P. aeruginosa CCUG 59626: strain CCUG 59626
Method in brief: as §1

[5] = system: Klebsiella pneumoniae; assay: as above; type: cell-based; settings: 1:1 (wt:wt) combination with Rifampicin, MIC = total drug concentration; for MIC K. pneumoniae CCUG-59348: strain CCUG-59348; for MIC K. pneumoniae ATCC 4352: strain ATCC 4352; for MIC K. pneumoniae ATCC-BAA-2146: strain ATCC-BAA-2146
Method in brief: as §1

[6] = system: Escherichia coli; assay: MIC, sole activity (no second agent); type: cell-based
Method in brief: (§2)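 Inoculum: direct colony suspension (18-24 h MH agar), 0.5 McFarland. Medium: cation-adjusted MHB. Up to 4 strains/species; reported relative to Polymyxin B.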

[7] = system: Acinetobacter baumannii; assay: MIC, sole activity (no second agent); type: cell-based
Method in brief: as §2

[8] = system: Pseudomonas aeruginosa; assay: MIC, sole activity (no second agent); type: cell-based
Method in brief: as §2

[9] = system: Klebsiella pneumoniae; assay: MIC, sole activity (no second agent); type: cell-based
Method in brief: as §2

[10] = system: P. aeruginosa ATCC 27853; settings: ATCC 27853, in vivo
[11] = Table 6A, no second agent, different supplier of Cation-adjusted MHB
[12] = in the absence of Rifampicin, strain ATCC25922
[13] = in the absence of Rifampicin, strain ATCC27853
[14] = in the absence of Rifampicin, strain ATCC 4352

Row | Structure (SMILES) | HK-2 IC50 rel to PMB [1] | MIC E. coli ATCC25922 [2] | MIC E. coli NCTC9001 [2] | MIC A. baumannii ATCC BAA-747 [3] | MIC A. baumannii CCUG57249 [3] | MIC A. baumannii NCTC 13423 [3] | MIC A. baumannii NCTC 13424 [3] | MIC P. aeruginosa ATCC 27853 [4] | MIC P. aeruginosa ATCC CRM-9027 [4] | MIC P. aeruginosa ATCC-47 [4] | MIC P. aeruginosa CCUG 59626 [4] | MIC K. pneumoniae CCUG-59348 [5] | MIC E. coli ATCC25922 [6, 12] | MIC P. aeruginosa ATCC 27853 [8, 13] | MIC K. pneumoniae ATCC 4352 [9, 14] | Log reduction from vehicle (CFU/g) ([10]; iv, 2 mg/kg, 9 h) | Log reduction from vehicle (CFU/g) ([10]; iv, 4 mg/kg, 9 h) | HK-2 relative to PMB [1] | HK-2 toxicity (IC50) compared with PMB [1] | MIC K. pneumoniae ATCC 4352 [5] | further results
1 | CC(C)C[C@@H]1NC(=O)[C@@H](Cc2ccccc2)NC(=O)[C@H](CCN)NC(=O)[C@@H](NC(=O)[C@H](CCN)NC(=O)[C@@H](NC(=O)[C@H](CCN)NC(=O)CC(N)C2CCCCC2)C(C)O)CCNC(=O)[C@H](C(C)O)NC(=O)[C@H](CCN)NC(=O)[C@H](CCN)NC1=O (mixture of isomers) [Example 39, 3-(RS)-(3-Amino-3-cyclohexyl)propanoyl polymyxin B decapeptide, trifluoroacetate salt] | 1.5-2 | ≤0.06 micrograms/mL | 0.125 micrograms/mL | 0.125 micrograms/mL | ≤0.06 micrograms/mL | ≤0.06 micrograms/mL | 0.125 micrograms/mL | 0.125 micrograms/mL | 0.25 micrograms/mL | 0.125 micrograms/mL | 0.125 micrograms/mL | 1 micrograms/mL | 2 micrograms/mL | 0.125 micrograms/mL | 1 micrograms/mL | 2.56 log CFU/g | 3.88 log CFU/g |  |  |  | MIC E. coli ATCC25922 [6, 11]: 2 micrograms/mL; MIC E. coli NCTC 13441 [6, 11]: 2 micrograms/mL; MIC E. coli NCTC9001 ([6]; in the absence of Rifampicin, strain NCTC9001): 4 micrograms/mL; MIC A. baumannii ATCC BAA-747 [7, 11]: 1 micrograms/mL; MIC A. baumannii NCTC 13424 [7, 11]: 2 micrograms/mL; MIC A. baumannii ATCC13424 ([7]; in the absence of Rifampicin, strain ATCC13424): 0.125 micrograms/mL; MIC A. baumannii ATCCBAA-747 ([7]; in the absence of Rifampicin, strain ATCCBAA-747): 1 micrograms/mL; MIC A. baumannii CCUG57249 ([7]; in the absence of Rifampicin, strain CCUG 57249): 1 micrograms/mL; MIC A. baumannii NCTC 13423 ([7]; in the absence of Rifampicin, strain NCTC13423): 0.25 micrograms/mL; MIC P. aeruginosa ATCC 27853 [8, 11]: 0.25 micrograms/mL; MIC P. aeruginosa CCUG 59347 [8, 11]: 0.5 micrograms/mL; MIC P. aeruginosa ATCC-47 ([8]; in the absence of Rifampicin, strain ATCC-47): 1 micrograms/mL; MIC P. aeruginosa ATCCCRM-9027 ([8]; in the absence of Rifampicin, strain ATCCCRM-9027): 0.125 micrograms/mL; MIC P. aeruginosa CCUG 59626 ([8]; in the absence of Rifampicin, strain CCUG 59626): ≤0.06 micrograms/mL; MIC K. pneumoniae ATCC 4352 [9, 11]: 1 micrograms/mL; MIC K. pneumoniae ATCC BAA-2146 [9, 11]: 2 micrograms/mL; MIC K. pneumoniae ATCC-BAA2146 ([9]; in the absence of Rifampicin, strain ATCC-BAA2146): 32 micrograms/mL; MIC K. pneumoniae CCUG-59348 ([9]; in the absence of Rifampicin, strain CCUG-59348): >32 micrograms/mL
2 | CCCCCC(N)CC(=O)N[C@H](C(=O)N[C@@H](CCN)C(=O)N[C@H]1CCNC(=O)[C@H](C(C)O)NC(=O)[C@H](CCN)NC(=O)[C@H](CCN)NC(=O)[C@H](CC(C)C)NC(=O)[C@@H](Cc2ccccc2)NC(=O)[C@H](CCN)NC1=O)C(C)O (single isomer, unassigned; isomer 2) [Example A33, 3-(RS)-3-amino octanoyl polymyxin B nonapeptide. Isomer 2] | 9.7 |  |  |  |  |  |  |  |  |  |  |  |  |  |  |  |  | 9.7 | significantly increased recorded IC50 values |  | Log reduction from vehicle (CFU/g) ([10]; 3.4 mg/kg, 24 h): 3.54 log CFU/g
3 | CC(C)C[C@@H]1NC(=O)[C@@H](Cc2ccccc2)NC(=O)[C@H](CCN)NC(=O)[C@@H](NC(=O)[C@H](CCN)NC(=O)[C@@H](NC(=O)CCCCCCN)C(C)O)CCNC(=O)[C@H](C(C)O)NC(=O)[C@H](CCN)NC(=O)[C@H](CCN)NC1=O (stereo partly shown) [Example 13, 7-Aminoheptanoyl polymyxin B nonapeptide] (H-[Ahp][Thr(3ξ)][Dab][Dab][Dab][dF]L[Dab][Dab][Thr(3ξ)]; lactam 4-C) |  | 0.125 micrograms/mL | 0.5 micrograms/mL | ≤0.06 micrograms/mL | 0.125 micrograms/mL | ≤0.06 micrograms/mL | 0.125 micrograms/mL | 0.25 micrograms/mL |  | 0.25 micrograms/mL | 0.125 micrograms/mL | 4 micrograms/mL | 1 micrograms/mL | 0.25 micrograms/mL | 2 micrograms/mL |  |  | 14 | significantly increased recorded IC50 values | 0.125 micrograms/mL | MIC K. pneumoniae ATCC-BAA-2146 [5]: 0.5 micrograms/mL; MIC K. pneumoniae NCTC 13438 ([5]; strain NCTC 13438): 1 micrograms/mL
4 | CC(C)C[C@@H]1NC(=O)[C@@H](Cc2ccccc2)NC(=O)[C@H](CCN)NC(=O)[C@@H](NC(=O)[C@H](CCN)NC(=O)[C@@H](NC(=O)[C@H](CCN)NC(=O)C(O)C2CCCCC2)C(C)O)CCNC(=O)[C@H](C(C)O)NC(=O)[C@H](CCN)NC(=O)[C@H](CCN)NC1=O (stereo partly drawn) [Example A3, 2-(RS)-(2-Hydroxy-2-cyclohexyl)ethanoyl polymyxin B decapeptide] (ξHexahydromandeloyl-[Dab][Thr(3ξ)][Dab][Dab][Dab][dF]L[Dab][Dab][Thr(3ξ)]; lactam 4-C) | 4 |  |  |  |  |  |  |  |  |  |  |  |  |  |  | 0.12 log CFU/g | 3.34 log CFU/g |  |  |  | 
5 | CC(C)C[C@@H]1NC(=O)[C@@H](Cc2ccccc2)NC(=O)[C@H](CCN)NC(=O)[C@@H](NC(=O)[C@H](CCN)NC(=O)[C@@H](NC(=O)[C@H](CCN)NC(=O)Nc2ccccc2Cl)C(C)O)CCNC(=O)[C@H](C(C)O)NC(=O)[C@H](CCN)NC(=O)[C@H](CCN)NC1=O (stereo partly shown) [Example C2, CB-182, 804 sulphate salt, reference compound] ({NH(2-ClPh)-CO}-[Dab][Thr(3ξ)][Dab][Dab][Dab][dF]L[Dab][Dab][Thr(3ξ)]; lactam 4-C) |  | 0.125 micrograms/mL | 0.25 micrograms/mL | 0.25 micrograms/mL | 0.5 micrograms/mL | 0.25 micrograms/mL |  | 0.5 micrograms/mL | 0.5 micrograms/mL | 0.25 micrograms/mL | 0.125 micrograms/mL | 2 micrograms/mL |  |  |  |  |  |  |  | 0.25 micrograms/mL | IC50 HK-2 cells ([1]; HK-2 cells, 24 h, resazurin reduction, mean values of up to 6 independent studies): 22 µg/mL; MIC K. pneumoniae ATCC-BAA-2146 [5]: 0.5 micrograms/mL
